Marks after values point to notes of the source that are not given here.
Key:
[1] = Degradation of nine organochlorine pesticides by gamma irradiation in samples of P. quinquefolium (GC analysis); type: physicochemical; settings: for remaining concentration of organochlorine pesticides in samples: P. quinquefolium samples, mean of three; for proportion of pesticide degraded: gamma irradiation of P. quinquefolium samples, dose not stated in the sentence (matches 25 kGy of Table 1)
Excerpt: The nine organochlorine pesticides that included Aldrin, Lindane, Heptachlor, Endosulfan-1, Endosulfan-2, o,p′-DDD), p,p′-DDD, p,p′-DDE, and p,p′-DDT were simultaneously prepared in a n-hexane solution. Subsequently, the n-hexane solution that contained the aforesaid organochlorine pesticides was evenly sprayed into samples of P. quinquefolium; the concentration of each of the nine organochlorine pesticides contained in the samples was approximately 0.5 ppm. The samples were cut into pieces with scissors, and then divided into separate packs that weighed 10 g, respectively; the packs were subjected to gamma irradiation of different dosages ranging from 0, 5, 10, 15, 20, and 25 kGy, and followed by the analysis of concentration of the aforesaid organochlorine pesticides. […] Solution was extracted from the samples by using 70% aqueous acetone, and then the extracted solution was subjected to filtration, a decrease in pressure, and condensation in order to remove acetone, followed by the addition of hydrochloric acid and n-hexane to bring the extracted solution to 100 ml, so that the organochlorine pesticides were distributed to the organic layer. Consequently, magnesium silicate was added into the resulted solution in order to depigment and purify it, and once the solution has undergone a decrease in pressure and condensation again for drying, it was brought to 5 ml by adding n-hexane solution to prepare it for gas chromatography (GC) analysis. After undergoing centrifugation, 2 μl of the resulted solution was taken for GC analysis to find out the respective concentration of each of the aforesaid organochlorine pesticides remaining in the samples after receiving various dosages of gamma irradiation.

[2] = Concentration of marker components (ginsenosides) in P. quinquefolium samples after gamma irradiation (HPLC); type: physicochemical; settings: for concentration of marker components of P. quinquefolium (ginsenoside): mean ± SD, three repeats; for effect of gamma irradiation on concentration of marker components: 10 kGy and 15 kGy gamma irradiation, P. quinquefolium samples
Procedure: Samples of P. quinquefolium that have respectively received gamma irradiation in dosages of 0, 10, 15, and 20 kGy were analyzed to find out the concentration of marker components therein, with the samples that have not received gamma irradiation as the control group. To extract marker components from the samples for analysis, 10 g of the samples were taken and prepared in 50 ml of 70% aqueous methanol solution, and heated in a convection heater at 60° C. for 15 minutes, followed by centrifugation in order to obtain the extract solution. Subsequently, the residual of the samples were subjected to the above-mentioned procedure again, and the extracted solution from the two rounds of procedures were mixed together and filtered, followed by the addition of 70% aqueous methanol solution to bring the volume up to 100 ml; the resulted solution was then stored at −20° C. and analyzed within 3 days. Before carrying out the analysis of ingredients, an adequate amount of the resulted solution was underwent filtration through a 0.22 μm pore size membrane, and then 20 μl of the solution was injected into a high performance liquid chromatographer for analysis (HPLC, Waters model 2695) each time; the analyses were carried out in combination with UV light—Visible light sensor of Waters model 2487, and a silicon-based reverse phase C-18 column (Cosmosil 5C18-MS-II, 5 μm, 4.6×250 mm, Nacalai Tesque, Inc., Kyoto, Japan) was used for analyzing the marker components of P. quinquefolium in the solution. The marker components of P. quinquefolium tested in the experiment included ginsenoside Rb1, ginsenoside Rg1, ginsenoside Rc, ginsenoside Rd, and ginsenoside Re; the detection wavelength of UV light was 203 ηm. The solution of 15% aqueous phosphoric acid (H3PO4)—acetonitrile (CH3CN) (81:19 to 60:40) was used as the moving phase, and the moving phase was analyzed at 25° C. and 1.0 ml/min of flow velocity after being filtered with a 0.45 μm filtration membrane, so as to measure the concentration of the marker components in samples of P. quinquefolium that received various dosages of gamma irradiation.

[3] = 0 kGy gamma irradiation (control group)

concentration of marker components of P. quinquefolium (ginsenoside) [2, 3]	effect of gamma irradiation on concentration of marker components [2]	concentration of marker components of P. quinquefolium (ginsenoside) ([2]; 10 kGy gamma irradiation) [mg/g]	concentration of marker components of P. quinquefolium (ginsenoside) ([2]; 15 kGy gamma irradiation) [mg/g]	concentration of marker components of P. quinquefolium (ginsenoside) ([2]; 20 kGy gamma irradiation) [mg/g]	SMILES	remaining concentration of organochlorine pesticides in samples [1, 3]	remaining concentration of organochlorine pesticides in samples ([1]; 5 kGy gamma irradiation) [ppm]	remaining concentration of organochlorine pesticides in samples ([1]; 10 kGy gamma irradiation) [ppm]	remaining concentration of organochlorine pesticides in samples ([1]; 15 kGy gamma irradiation) [ppm]	remaining concentration of organochlorine pesticides in samples ([1]; 20 kGy gamma irradiation) [ppm]	remaining concentration of organochlorine pesticides in samples ([1]; 25 kGy gamma irradiation) [ppm]	proportion of pesticide degraded [1] [%]
					ClC1=C(Cl)C2(Cl)C3C4C=CC(C4)C3C1(Cl)C2(Cl)Cl (stereo not drawn) [Aldrin]	0.532^a) ppm	0.376	0.279	0.218	0.168	0.123	
					O=S1OC[C@@H]2[C@H](CO1)[C@@]1(Cl)C(Cl)=C(Cl)[C@]2(Cl)C1(Cl)Cl (stereo partly drawn) [Endosulfan-1]	0.519 ppm	0.392	0.311	0.251	0.192	0.140	
					O=S1OC[C@@H]2[C@H](CO1)[C@]1(Cl)C(Cl)=C(Cl)[C@]2(Cl)C1(Cl)Cl (stereo partly drawn) [Endosulfan-2]	0.515 ppm	0.359	0.263	0.198	0.144	0.093	
					ClC1=C(Cl)C2(Cl)C3C(Cl)C=CC3C1(Cl)C2(Cl)Cl (stereo not drawn) [Heptachlor]	0.532 ppm	0.421	0.319	0.254	0.195	0.142	
					Cl[C@H]1[C@H](Cl)[C@@H](Cl)[C@@H](Cl)[C@H](Cl)[C@H]1Cl [Lindane]	0.549 ppm	0.383	0.278	0.206	0.147	0.089	84
31.37 ± 0.15^a) mg/g	would not affect	31.01 ± 0.11	30.59 ± 0.63	29.39 ± 0.36	CC(C)=CCC[C@](C)(O[C@@H]1O[C@H](CO[C@@H]2O[C@H](CO)[C@@H](O)[C@H](O)[C@H]2O)[C@@H](O)[C@H](O)[C@H]1O)[C@H]1CC[C@]2(C)[C@@H]1[C@H](O)C[C@@H]1[C@@]3(C)CC[C@H](O[C@@H]4O[C@H](CO)[C@@H](O)[C@H](O)[C@H]4O[C@@H]4O[C@H](CO)[C@@H](O)[C@H](O)[C@H]4O)C(C)(C)[C@@H]3CC[C@]12C [Rb1, ginsenoside Rb1]							
16.12 ± 0.47 mg/g	would not affect	15.91 ± 0.43	15.08 ± 0.27	14.46 ± 0.28	CC(C)=CCC[C@](C)(O[C@@H]1O[C@H](CO[C@@H]2O[C@@H](CO)[C@H](O)[C@H]2O)[C@@H](O)[C@H](O)[C@H]1O)[C@H]1CC[C@]2(C)[C@@H]1[C@H](O)C[C@@H]1[C@@]3(C)CC[C@H](O[C@@H]4O[C@H](CO)[C@@H](O)[C@H](O)[C@H]4O[C@@H]4O[C@H](CO)[C@@H](O)[C@H](O)[C@H]4O)C(C)(C)[C@@H]3CC[C@]12C [Rc, ginsenoside Rc]							
9.02 ± 0.32 mg/g	would not affect	8.77 ± 0.15	8.44 ± 0.25	8.20 ± 0.17	CC(C)=CCC[C@](C)(O[C@@H]1O[C@H](CO)[C@@H](O)[C@H](O)[C@H]1O)[C@H]1CC[C@]2(C)[C@@H]1[C@H](O)C[C@@H]1[C@@]3(C)CC[C@H](O[C@@H]4O[C@H](CO)[C@@H](O)[C@H](O)[C@H]4O[C@@H]4O[C@H](CO)[C@@H](O)[C@H](O)[C@H]4O)C(C)(C)[C@@H]3CC[C@]12C [Rd, ginsenoside Rd]							
15.98 ± 0.50 mg/g	would not affect	15.79 ± 0.21	15.04 ± 0.33	14.53 ± 0.14	CC(C)=CCC[C@](C)(O[C@@H]1O[C@H](CO)[C@@H](O)[C@H](O)[C@H]1O)[C@H]1CC[C@]2(C)[C@@H]1[C@H](O)C[C@@H]1[C@@]3(C)CC[C@H](O)C(C)(C)[C@@H]3[C@@H](O[C@@H]3O[C@H](CO)[C@@H](O)[C@H](O)[C@H]3O[C@@H]3O[C@@H](C)[C@H](O)[C@@H](O)[C@H]3O)C[C@]12C [Re, ginsenoside Re]							
1.56 ± 0.09 mg/g	would not affect	1.56 ± 0.06	1.47 ± 0.03	1.43 ± 0.02	CC(C)=CCC[C@](C)(O[C@@H]1O[C@H](CO)[C@@H](O)[C@H](O)[C@H]1O)[C@H]1CC[C@]2(C)[C@@H]1[C@H](O)C[C@@H]1[C@@]3(C)CC[C@H](O)C(C)(C)[C@@H]3[C@@H](O[C@@H]3O[C@H](CO)[C@@H](O)[C@H](O)[C@H]3O)C[C@]12C [Rg1, ginsenoside Rg1]							
					Clc1ccc(C(c2ccccc2Cl)C(Cl)Cl)cc1 (stereo not drawn) [o,p′-DDD]	0.476 ppm	0.337	0.250	0.196	0.155	0.119	
					Clc1ccc(C(c2ccc(Cl)cc2)C(Cl)Cl)cc1 [p,p′-DDD]	0.502 ppm	0.370	0.282	0.227	0.179	0.147	
					ClC(Cl)=C(c1ccc(Cl)cc1)c1ccc(Cl)cc1 [p,p′-DDE]	0.544 ppm	0.404	0.313	0.249	0.195	0.145	
					Clc1ccc(C(c2ccc(Cl)cc2)C(Cl)(Cl)Cl)cc1 [p,p′-DDT]	0.520 ppm	0.344	0.242	0.178	0.127	0.082	84
